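Compound exposure: 48 hours, 5 concentrations, 96-well plates. Abbreviation: GI50, concentration required for 50% inhibition of growth. The concentration for full growth arrest is given as TGI.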
Experiments:
Experiment in all cases: NCI tumour cell line growth inhibition, 48 h
A549 NSCLC = test system: A549 NSCLC
BT-549 breast = test system: BT-549 breast
CCRF-CEM leukemia = test system: CCRF-CEM leukemia
HCT-116 colon = test system: HCT-116 colon
K-562 leukemia = test system: K-562 leukemia
KM12 colon = test system: KM12 colon
M14 melanoma = test system: M14 melanoma
MOLT-4 leukemia = test system: MOLT-4 leukemia
OVCAR-5 ovarian = test system: OVCAR-5 ovarian
SK-OV-3 ovarian = test system: SK-OV-3 ovarian

| SMILES | GI50 (A549 NSCLC) [µM] | TGI (A549 NSCLC) [µM] | GI50 (BT-549 breast) [µM] | TGI (BT-549 breast) [µM] | GI50 (CCRF-CEM leukemia) [µM] | TGI (CCRF-CEM leukemia) [µM] | GI50 (HCT-116 colon) [µM] | TGI (HCT-116 colon) [µM] | GI50 (K-562 leukemia) [µM] | TGI (K-562 leukemia) [µM] | GI50 (KM12 colon) [µM] | TGI (KM12 colon) [µM] | GI50 (M14 melanoma) [µM] | TGI (M14 melanoma) [µM] | GI50 (MOLT-4 leukemia) [µM] | TGI (MOLT-4 leukemia) [µM] | GI50 (OVCAR-5 ovarian) [µM] | TGI (OVCAR-5 ovarian) [µM] | GI50 (SK-OV-3 ovarian) [µM] | TGI (SK-OV-3 ovarian) [µM] |
| --- | --- | --- | --- | --- | --- | --- | --- | --- | --- | --- | --- | --- | --- | --- | --- | --- | --- | --- | --- | --- |
| N#CC1(c2ccc(NC(=O)c3cccnc3NCc3ccncc3)cc2)CCCC1 | 17.3 | > 79.7 | 10.2 | 61 | 12.9 | > 95 | 12.1 | 32 | 5.79 | > 51 | 23 | 73 | 16.1 | > 67.1 | 6.26 | 31.9 | 22.5 | > 91.8 | 21.7 | > 84.1 |
| Cc1cccc(NC(=O)c2sc3nc4c(cc3c2N)C(=O)CCC4)c1 | 0.335 | > 100 | 2.68 | > 96.3 | 2.26 | > 100 | 0.333 | > 100 | 0.105 | > 100 | 0.215 | > 100 | 0.179 | > 34.6 | 25 | > 100 | – | > 57.7 | 0.317 | > 100 |
| O=c1c2ccccc2sc2c(CO)ccc(NCCN3CCCCC3)c12 | – | 12.8 | – | 23 | – | 3.99 | – | 11.8 | – | 5.36 | – | 14.8 | – | 3.82 | – | 5.36 | – | 20 | – | 16.3 |
| c1ccc(-c2[nH]ncc2-c2ccnc(-c3ccc(OCCn4ccnc4)cc3)c2)nc1 | > 25 | > 25 | 22.5 | > 25 | 17.3 | > 25 | > 25 | > 25 | 6.44 | > 25 | 13.7 | > 25 | > 25 | > 25 | 10 | > 25 | > 25 | > 25 | > 25 | > 25 |
| Cn1nccc1Nc1nccc(-c2ccn([C@H](CO)c3ccc(Cl)c(F)c3)c(=O)c2)n1 | 36 | > 100 | 19.7 | 61 | 15.7 | > 85.1 | 2.79 | 21.1 | 22.5 | > 100 | 18.8 | > 100 | 0.0871 | > 72.2 | 24.4 | > 92.2 | 2.55 | > 100 | 47.6 | > 100 |
| CC(Br)C(=O)NC(CO)C(=O)O (centres undefined) | – | > 100 | – | > 100 | – | > 100 | – | > 100 | – | > 100 | – | > 100 | – | > 100 | – | > 100 | – | > 100 | – | > 100 |
| O=C(Nc1cccc(-n2cc(-c3ccncc3)c(-c3cc(O)cc(Cl)c3)n2)c1)c1ccc(N2CCOCC2)c(C(F)(F)F)c1 | 1.64 | 18 | 4.21 | > 100 | 0.543 | > 100 | 1.96 | > 100 | 0.564 | 4.88 | 1.21 | > 100 | 0.774 | 2.74 | 1.11 | 4.38 | 14.8 | 39.6 | 9.63 | > 100 |
| CNCc1cccc2c1OCCOCCOCCN(C)S(=O)(=O)c1ccc(cc1)-c1cnc(N)c(n1)C(=O)N2 | 1.57 | 13.4 | 3.27 | 21.6 | 0.549 | 3.95 | 1.19 | 3.12 | 0.622 | 10.3 | 2.29 | 14.6 | 1.11 | 3.4 | 0.41 | 11.8 | 3.39 | 8.57 | 0.389 | 12.8 |
| Cn1c([N+](=O)[O-])cnc1C=C1C(=O)c2ccccc2C1=O | 12.2 | 41.3 | 3.86 | 12.8 | 1.85 | 6.53 | 3.77 | 13.1 | 3.34 | 16.3 | 11.1 | 32.7 | 3.83 | 16.6 | 3.68 | 17.6 | 6 | 18.7 | 6.32 | 29.4 |
| COc1cc2c(cc1Nc1nc(N3CCc4ccccc43)c3cc[nH]c3n1)N(C(=O)CN(C)C)CC2 | 3.34 | 8.88 | 8.38 | 15.7 | 0.611 | 1.49 | 1.33 | 2.91 | 0.478 | 1.2 | 1.49 | 2.81 | 0.6 | 1.51 | 1.88 | 4.79 | 1.22 | 5.63 | 20.5 | 25 |
| O=C(/C=C/C12c3ccccc3C(c3ccccc31)C1C(=O)NC(=O)C12)c1ccccn1 (centres undefined) | 2.34 | 6.86 | 1.82 | 3.69 | 1.44 | 9.92 | 1.42 | 3.14 | 1.37 | 18.1 | 1.43 | 3.03 | 1.83 | 4.12 | 2.11 | 9.55 | 2.04 | 4.54 | 2.4 | 8.31 |
| CC1(C)OC[C@@H]([C@@]2(CO[Si](c3ccccc3)(c3ccccc3)C(C)(C)C)CC=CC(=O)O2)O1 | 5.27 | > 100 | 4.46 | 19 | 6.63 | > 100 | 4.86 | > 100 | 3.91 | > 100 | 4.99 | 56.3 | 8.52 | 60.5 | 8.94 | > 100 | 16.7 | 49.6 | 33 | > 100 |
| CC(C)(CO)CNC(=O)c1ccc2[nH]c(O)c(N=Nc3ccc(S(N)(=O)=O)cc3)c2c1 | > 25 | > 25 | > 25 | > 25 | > 25 | > 25 | > 25 | > 25 | > 25 | > 25 | > 25 | > 25 | > 25 | > 25 | > 25 | > 25 | > 25 | > 25 | > 25 | > 25 |
